Experimental data: EP0003794B1, “Testosterone esters, process for their preparation and pharmaceutical compositions containing them” (priority 1978, dated 1979)

How the values were obtained:
[1] = Testosterone plasma concentration (radioimmunoassay) and bioavailability after oral application in peanut oil, female dogs; i.m. testosterone as the reference; format: in vivo, Hunden
Protocol: Es wurde der zeitliche Verlauf der Testosteronkonzentration im Plasma von weiblichen Hunden von ca. 10 kg Gewicht nach oraler Applikation von 50 mg Testosteron-0-hexadecanoylglykolat (= 25 mg Testosteron) und von 40 mg Testosteronundecylat (= 25 mg Testosteron) im Vergleich zur […] Applikation von 25 mg Testosteron gemessen. Die Testosteronbestimmung im Plasma erfolgte mittels Radioimmunoassay. Zur Applikation wurden die geprüften Substanzen in Erdnußöl gelöst.
Die Bioverfügbarkeit wurde berechnet als Quotient der Flächen unter der Testosteronplasmaspiegelkurve (0-8 Stunden) nach oraler Applikation der geprüften Substanzen und der Fläche unter der Testosteronplasinaspiegelkurve nach intramuskulärer Applikation von Testosteron.

[2] = format: in vivo, Paviane; conditions: 50 mg i.m. in 1 ml Rizinusöl/Benzylbenzoat (6:4), female baboons
Protocol: Die gleichmäßige, anhaltende Bereitstellung von Testosteron aus den erfindungsgemäßen Estern kann durch Bestimmung der Testosteronkonzentration im Plasma mittels Radioimmunoassay nachgewiesen werden.
Zu diesem Zweck erhielten zwei weibliche Paviane je 50 mg Testosteron-O-hexadecanoylglykolat in 1 ml Rizinusöl/Benzylbenzoat (6:4) intramuskular. Die Testosteron-Plasmaspiegel lagen zwischen dem 2. und 40. Tag im Bereich zwischen 15 und 25 ng/ml Plasma.

[3] = Recent Progress in Hormone Research, Volume XIII, 389-396, Fig. 1 and Fig. 4; cited from earlier work

SMILES	Wirkung (Verlauf) im Vergleich zu Testosteronönanthat [3]	also measured
C[C@]12CC[C@H]3[C@@H](CCC4=CC(=O)CC[C@@]43C)[C@@H]1CC[C@@H]2O [Testosteron (T), Testosteron]	–	AUC at 8 h ([1]; dog, plasma, oral, in Erdnußöl, dose ≙ 25 mg Testosteron, female dogs ca. 10 kg, testosterone by radioimmunoassay, read-out: Fläche unter Plasma-spiegel (0 – 8 h)): 10.6 ng·h/mL; Bioverfügbarkeit bezogen auf i.m. Applikation ([1]; in vivo): 1,29%
CCCCCCCCCCCCCCCC(=O)OCC(=O)O[C@H]1CC[C@H]2[C@@H]3CCC4=CC(=O)CC[C@]4(C)[C@H]3CC[C@]12C [Testosteron-O-hexadecanoylglykolat]	–	Freisetzung des Testosterons aus dem Depot [2]: fast vollständig freigesetzt
CCCCCCCCCC(=O)CC(=O)O[C@H]1CC[C@H]2[C@@H]3CCC4=CC(=O)CC[C@]4(C)[C@H]3CC[C@]12C [Testosteroncaprinoylacetat]	über 6 Wochen etwas gleichmäßigere aber insgesamt geringere Wirkung	–
CCCCCCCCCCC(=O)O[C@H]1CC[C@H]2[C@@H]3CCC4=CC(=O)CC[C@]4(C)[C@H]3CC[C@]12C [Testosteronundecylat]	etwas gleichmäßigere Wirkung als Testosteronönanthat	–
CCCCCCC(=O)O[C@H]1CC[C@H]2[C@@H]3CCC4=CC(=O)CC[C@]4(C)[C@H]3CC[C@]12C [Testosteronönanthat]	besonders hohe initiale Wirkung zeigt, die relativ rasch abfällt	–
